# Test results taken from publication PMC8963254, “Effects of Lysine N-ζ-Methylation in Ultrashort Tetrabasic Lipopeptides (UTBLPs) on the Potentiation of Rifampicin, Novobiocin, and Niclosamide in Gram-Negative Bacteria” (Antibiotics, 2022).
# Like-named read-outs stand apart in the source and are kept apart here. Non-standard residues stand in square brackets, D forms with d. Residues, ends and D or L forms follow the SMILES beside them. *: point of attachment. Lys(Me2) = CN(C)CCCC[C@H](N)C(=O)O; Octanoyl = CCCCCCCC(=O)*
# How the values were obtained:
# MRSE 61589 = format: cell-based, Staphylococcus epidermidis
# Outline: (§1)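 Values derive from a two-agent checkerboard with an 18 h, 37 °C incubation. FICI cut-offs: ≤0.5 synergy, 0.5–4 additive, >4 antagonism.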
# MSSE 81388 = format: cell-based, Staphylococcus epidermidis
# Outline: as §1
# A. baumannii ATCC 17978 [1] = format: cell-based, Acinetobacter baumannii; conditions: ATCC 17978, 18 h
# Outline: (§2)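 MIC was determined by broth microdilution following CLSI guidelines. Serially varied compound concentrations were incubated with bacterial inoculum at 5 × 10^5 CFU/mL (final) for 18 h at 37 °C. Growth was scored as turbidity by absorbance at 590 nm.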
# E. coli ATCC 25922 [2] = format: cell-based, Escherichia coli; conditions: for MICUTBLP: UTBLP alone
# Outline: as §1
# P. aeruginosa PAO1 = format: cell-based, Pseudomonas aeruginosa; conditions: PAO1, 18 h
# Outline: as §2
# E. cloacae 118564 = experiment: microbe, parasite or virus in culture; format: cell-based, Enterobacter cloacae; conditions: 118564, 18 h
# Outline: as §2
# A. baumannii AB92247 = experiment: microbe, parasite or virus in culture; format: cell-based, Acinetobacter baumannii; conditions: AB92247, 18 h
# Outline: as §2
# A. baumannii AB027 [3] = experiment: microbe, parasite or virus in culture; format: cell-based, Acinetobacter baumannii; conditions: AB027, 18 h
# Outline: as §2
# A. baumannii 92247 = format: cell-based, Acinetobacter baumannii; conditions: for MICUTBLP: UTBLP alone
# Outline: as §1
# A. baumannii ATCC 17978 [4] = format: cell-based, Acinetobacter baumannii; conditions: for MICUTBLP: UTBLP alone
# Outline: as §1
# A. baumannii AB027 [5] = format: cell-based, Acinetobacter baumannii; conditions: for MICUTBLP: UTBLP alone
# Outline: as §1
# E. coli ATCC 25922 [6] = format: cell-based, Escherichia coli; conditions: ATCC 25922, 18 h
# Outline: as §2
# E. coli 94393 = experiment: microbe, parasite or virus in culture; format: cell-based, Escherichia coli; conditions: 94393, 18 h
# Outline: as §2
# E. coli 94474 = experiment: microbe, parasite or virus in culture; format: cell-based, Escherichia coli; conditions: 94474, 18 h
# Outline: as §2
# MRSA ATCC 33592 = format: cell-based, Staphylococcus aureus
# Outline: as §1
# S. aureus ATCC 29213 = format: cell-based, Staphylococcus aureus
# Outline: as §1
# [7] = UTBLP alone, plate with chloramphenicol
# [8] = UTBLP in combination with chloramphenicol
# [9] = chloramphenicol in combination with the UTBLP
# [10] = UTBLP in combination with niclosamide
# [11] = UTBLP in combination with novobiocin
# [12] = UTBLP in combination with rifampicin
# [13] = niclosamide in combination with the UTBLP
# [14] = novobiocin in combination with the UTBLP
# [15] = rifampicin in combination with the UTBLP
structure (smiles),measurement,setting,value
CCCCCCCC(=O)NCCCC[C@H](NC(=O)CCCCCCC)C(=O)N[C@@H](CCCCN(C)C)C(=O)N[C@@H](CCCCN(C)C)C(=O)N[C@@H](CCCCN(C)C)C(=O)N[C@@H](CCCCN(C)C)C(N)=O [UTBLP 7] (Octanoyl-K(Octanoyl)[Lys(Me2)][Lys(Me2)][Lys(Me2)][Lys(Me2)]-NH2),Interpretation,MRSE 61589; UTBLP + chloramphenicol,Additive (0.5 < x ≤ 4 is additive)
same,MICUTBLP,MRSE 61589; [7],32 µg/mL
same,MICUTBLP [MICcombo],MRSE 61589; [8],0.25 µg/mL
same,MICchloramphenicol [MICcombo],MRSE 61589; [9],8 µg/mL
same,Interpretation,MSSE 81388; UTBLP + chloramphenicol,Additive (0.5 < x ≤ 4 is additive)
same,MICUTBLP,MSSE 81388; [7],32 µg/mL
same,MICUTBLP [MICcombo],MSSE 81388; [8],0.25 µg/mL
same,MICchloramphenicol [MICcombo],MSSE 81388; [9],4 µg/mL
same,MIC,A. baumannii ATCC 17978 [1],128 µg/mL
same,Interpretation,E. coli ATCC 25922 [2]; UTBLP + chloramphenicol,Synergy (FICI ≤ 0.5 is synergistic)
same,Interpretation,E. coli ATCC 25922 [2]; UTBLP + niclosamide,Synergy (FICI ≤ 0.5 is synergistic)
same,Interpretation,E. coli ATCC 25922 [2]; UTBLP + novobiocin,Synergy (FICI ≤ 0.5 is synergistic)
same,Interpretation,E. coli ATCC 25922 [2]; UTBLP + rifampicin,Synergy (FICI ≤ 0.5 is synergistic)
same,MICUTBLP,E. coli ATCC 25922 [2]; plate with chloramphenicol,64 µg/mL
same,MICUTBLP,E. coli ATCC 25922 [2]; plate with niclosamide,64 µg/mL
same,MICUTBLP,E. coli ATCC 25922 [2]; plate with novobiocin,64 µg/mL
same,MICUTBLP,E. coli ATCC 25922 [2]; plate with rifampicin,64 µg/mL
same,MICUTBLP [MICcombo],E. coli ATCC 25922 [2]; [8],16 µg/mL
same,MICUTBLP [MICcombo],E. coli ATCC 25922 [2]; [10],4 µg/mL
same,MICUTBLP [MICcombo],E. coli ATCC 25922 [2]; [11],2 µg/mL
same,MICUTBLP [MICcombo],E. coli ATCC 25922 [2]; [12],8 µg/mL
same,MICantibiotic [MICcombo],E. coli ATCC 25922 [2]; [9],0.5 µg/mL
same,MICantibiotic [MICcombo],E. coli ATCC 25922 [2]; [13],1 µg/mL
same,MICantibiotic [MICcombo],E. coli ATCC 25922 [2]; [14],2 µg/mL
same,MICantibiotic [MICcombo],E. coli ATCC 25922 [2]; [15],0.125 µg/mL
same,MIC,P. aeruginosa PAO1,>128 µg/mL
same,MIC,E. cloacae 118564,> 128 µg/mL
same,MIC,A. baumannii AB92247,32 µg/mL
same,MIC,A. baumannii AB027 [3],128 µg/mL
same,Interpretation,A. baumannii 92247; UTBLP + novobiocin,Synergy (FICI ≤ 0.5 is synergistic)
same,Interpretation,A. baumannii 92247; UTBLP + rifampicin,Synergy (FICI ≤ 0.5 is synergistic)
same,MICUTBLP,A. baumannii 92247; plate with novobiocin,32 µg/mL
same,MICUTBLP,A. baumannii 92247; plate with rifampicin,32 µg/mL
same,MICUTBLP [MICcombo],A. baumannii 92247; [11],1 µg/mL
same,MICUTBLP [MICcombo],A. baumannii 92247; [12],8 µg/mL
same,MICantibiotic [MICcombo],A. baumannii 92247; [14],0.25 µg/mL
same,MICantibiotic [MICcombo],A. baumannii 92247; [15],0.125 µg/mL
same,Interpretation,A. baumannii ATCC 17978 [4]; UTBLP + chloramphenicol,Additive (0.5 < x ≤ 4 is additive)
same,Interpretation,A. baumannii ATCC 17978 [4]; UTBLP + niclosamide,Synergy (FICI ≤ 0.5 is synergistic)
same,Interpretation,A. baumannii ATCC 17978 [4]; UTBLP + novobiocin,Synergy (FICI ≤ 0.5 is synergistic)
same,Interpretation,A. baumannii ATCC 17978 [4]; UTBLP + rifampicin,Synergy (FICI ≤ 0.5 is synergistic)
same,MICUTBLP,A. baumannii ATCC 17978 [4]; plate with chloramphenicol,128 µg/mL
same,MICUTBLP,A. baumannii ATCC 17978 [4]; plate with niclosamide,128 µg/mL
same,MICUTBLP,A. baumannii ATCC 17978 [4]; plate with novobiocin,128 µg/mL
same,MICUTBLP,A. baumannii ATCC 17978 [4]; plate with rifampicin,128 µg/mL
same,MICUTBLP [MICcombo],A. baumannii ATCC 17978 [4]; [8],0.25 µg/mL
same,MICUTBLP [MICcombo],A. baumannii ATCC 17978 [4]; [10],4 µg/mL
same,MICUTBLP [MICcombo],A. baumannii ATCC 17978 [4]; [11],4 µg/mL
same,MICUTBLP [MICcombo],A. baumannii ATCC 17978 [4]; [12],4 µg/mL
same,MICantibiotic [MICcombo],A. baumannii ATCC 17978 [4]; [9],64 µg/mL
same,MICantibiotic [MICcombo],A. baumannii ATCC 17978 [4]; [13],4 µg/mL
same,MICantibiotic [MICcombo],A. baumannii ATCC 17978 [4]; [14],0.5 µg/mL
same,MICantibiotic [MICcombo],A. baumannii ATCC 17978 [4]; [15],0.125 µg/mL
same,Interpretation,A. baumannii AB027 [5]; UTBLP + novobiocin,Synergy (FICI ≤ 0.5 is synergistic)
same,Interpretation,A. baumannii AB027 [5]; UTBLP + rifampicin,Synergy (FICI ≤ 0.5 is synergistic)
same,MICUTBLP,A. baumannii AB027 [5]; plate with novobiocin,128 µg/mL
same,MICUTBLP,A. baumannii AB027 [5]; plate with rifampicin,128 µg/mL
same,MICUTBLP [MICcombo],A. baumannii AB027 [5]; [11],4 µg/mL
same,MICUTBLP [MICcombo],A. baumannii AB027 [5]; [12],8 µg/mL
same,MICantibiotic [MICcombo],A. baumannii AB027 [5]; [14],0.5 µg/mL
same,MICantibiotic [MICcombo],A. baumannii AB027 [5]; [15],0.063 µg/mL
same,MIC,E. coli ATCC 25922 [6],64 µg/mL
same,MIC,E. coli 94393,64 µg/mL
same,MIC,E. coli 94474,128 µg/mL
same,Interpretation,MRSA ATCC 33592; UTBLP + chloramphenicol,Additive (0.5 < x ≤ 4 is additive)
same,MICUTBLP,MRSA ATCC 33592; [7],> 128 µg/mL
same,MICUTBLP [MICcombo],MRSA ATCC 33592; [8],0.25 µg/mL
same,MICchloramphenicol [MICcombo],MRSA ATCC 33592; [9],64 µg/mL
same,MICUTBLP,S. aureus ATCC 29213; [7],> 128 µg/mL
same,MICUTBLP [MICcombo],S. aureus ATCC 29213; [8],0.25 µg/mL
same,MICchloramphenicol [MICcombo],S. aureus ATCC 29213; [9],8 µg/mL
